According to paper PMC3211141 (Anesthesiology, 2011):
Like-named read-outs stand apart in the source and are kept apart here.

What was measured:
[1] = system: wild-type C57BL/6 mice; conditions: for seizure duration (typical) / seizure incidence (N=seizure/total) / seizure incidence (% of mice) / EC50 for induction of seizures: iv; for EC50 for induction of seizures: wild type mice, quantal dose-response
[2] = system: TASK-1−/−:TASK-3−/− double knockout mice; conditions: for seizure duration (typical) / EC50 for induction of seizures: iv
[3] = system: homomeric and heteromeric TASK channels; assay: Whole-cell recording, statements across all tested TASK channel constructs; assay type: cell-based
[4] = system: wild-type mice; assay: Electroencephalogram recording of bupivacaine-induced seizures, wild type mice; assay type: in vivo; conditions: control (wild type) mice, two lower bupivacaine doses, n=6
[5] = system: TASK−/− mice; assay type: in vivo; conditions: two lower bupivacaine doses, n=6
[6] = biological target: TASK-1/TASK-3 heterodimeric channels (Rattus norvegicus, UniProt O54912+Q9ES08); assay type: cell-based; conditions: exemplar cell
[7] = C57BL/6, mouse, in vivo, 5 mg/kg
[8] = C57BL/6, mouse, in vivo, 10 mg/kg
[9] = C57BL/6 background (TASK-1−/−:TASK-3−/− double knockout), mouse, in vivo
[10] = C57BL/6, mouse, in vivo, 2.5 mg/kg
[11] = C57BL/6, mouse, in vivo, 3.75 mg/kg
[12] = C57BL/6, mouse, in vivo, 6.25 mg/kg
[13] = C57BL/6, mouse, in vivo, 7.5 mg/kg
[14] = TASK−/− mice, quantal dose-response

Chain of TASK-1/TASK-3 heterodimeric channels (O54912 whole entry): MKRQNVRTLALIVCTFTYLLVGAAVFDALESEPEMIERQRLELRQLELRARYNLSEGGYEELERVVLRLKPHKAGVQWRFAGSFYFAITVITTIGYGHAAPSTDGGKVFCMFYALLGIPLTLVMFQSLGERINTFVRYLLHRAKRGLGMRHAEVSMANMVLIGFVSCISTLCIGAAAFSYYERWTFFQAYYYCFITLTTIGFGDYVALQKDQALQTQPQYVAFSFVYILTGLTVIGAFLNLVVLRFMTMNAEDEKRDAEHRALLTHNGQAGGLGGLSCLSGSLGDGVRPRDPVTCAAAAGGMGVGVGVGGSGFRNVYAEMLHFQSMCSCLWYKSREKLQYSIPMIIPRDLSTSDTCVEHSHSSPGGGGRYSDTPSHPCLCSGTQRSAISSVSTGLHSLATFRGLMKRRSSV
Chain of TASK-1/TASK-3 heterodimeric channels (Q9ES08 whole entry): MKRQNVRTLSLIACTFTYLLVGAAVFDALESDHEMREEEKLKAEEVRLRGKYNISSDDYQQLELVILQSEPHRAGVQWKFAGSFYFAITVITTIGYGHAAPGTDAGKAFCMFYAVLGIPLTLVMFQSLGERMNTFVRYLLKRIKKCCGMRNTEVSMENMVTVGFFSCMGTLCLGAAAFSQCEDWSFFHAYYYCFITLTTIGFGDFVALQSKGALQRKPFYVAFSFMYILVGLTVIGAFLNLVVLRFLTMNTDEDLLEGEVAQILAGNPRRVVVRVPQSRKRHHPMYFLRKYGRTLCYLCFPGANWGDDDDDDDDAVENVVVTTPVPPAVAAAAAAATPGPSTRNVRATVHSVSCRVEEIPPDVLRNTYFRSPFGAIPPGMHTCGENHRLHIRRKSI

| Compound | seizure duration (typical) ([1]; C57BL/6, mouse, in vivo) | seizure incidence (N=seizure/total) [1, 7] | seizure incidence (N=seizure/total) [1, 8] | seizure duration (typical) [2, 9] | seizure incidence (N=seizure/total) [1, 10] | seizure incidence (N=seizure/total) [1, 12] | seizure incidence (N=seizure/total) [1, 13] | EC50 for induction of seizures [1] | EC50 for induction of seizures [2, 14] | further results |
| --- | --- | --- | --- | --- | --- | --- | --- | --- | --- | --- |
| CCN(CC)CC(=O)Nc1c(C)cccc1C [lidocaine] | < 25 s | 0/15 | 4/15 | < 25 s |  |  |  |  |  | seizure incidence (N=seizure/total) ([1]; C57BL/6, mouse, in vivo, 15 mg/kg): 10/15; seizure incidence (N=seizure/total) ([1]; C57BL/6, mouse, in vivo, 17.5 mg/kg): 13/15; EC50 for induction of seizures ([2]; mouse, in vivo): 17.3 ± 1.0 mg/kg |
| CCCN1CCCC[C@H]1C(=O)Nc1c(C)cccc1C [ropivacaine] | < 150 s | 10/14 | 3/3 | < 150 s | 0/14 | 14/14 | 11/11 | 4.7 ± 0.1 mg/kg | 6.0 ± 0.2 mg/kg | seizure incidence (N=seizure/total) [1, 11]: 0/14; seizure incidence (% of mice) [1, 7]: ~ 72%; seizure incidence (N=seizure/total) ([1]; C57BL/6, mouse, in vivo, 8.75 mg/kg): 9/9 |
| CCCCN1CCCCC1C(=O)Nc1c(C)cccc1C (centres unmarked) [bupivacaine] |  | 14/14 |  |  | 1/14 | 12/12 | 4/4 | 3.4 ± 0.1 mg/kg | 4.5 ± 0.1 mg/kg | fold more potent than lidocaine for TASK channel inhibition [3]: 3.1- to 4.4 fold; fold more potent than ropivacaine for TASK channel inhibition ([3]; across TASK channels): 1.4- to 1.7 fold; electroencephalogram peak frequency during seizures [4]: 3.4 ± 0.4 Hz; electroencephalogram peak frequency during seizures [5]: ~ 4.4 ± 0.2 Hz; fold more potent for induction of seizures than ropivacaine ([1]; C57BL/6, mouse, in vivo): ~ 1.4 fold; seizure incidence (% of mice) [1, 11]: ~ 71%; seizure duration (typical) ([1]; mouse, in vivo): significantly longer in duration; fold more potent for induction of seizures than ropivacaine [2, 9]: ~ 1.4 fold |
| picrotoxin |  |  |  |  |  |  |  | ~ 1.0 mg/kg | ~ 1.0 mg/kg | effect on peak TASK-1/TASK-3 current ([6]; 100 μM): no discernible effect; decrease in peak TASK-1/TASK-3 current ([6]; 300 μM): < 10%; decrease in current amplitude (averaged, non-significant) ([3]; all tested TASK channel constructs, 50, 100 & 300 μM): ≤ 13% |
